From ChEMBL document CHEMBL1909046, “DrugMatrix in vitro pharmacology data”

Legend:
Cathepsin G = target: T1, Cathepsin G (Homo sapiens, UniProt P08311); test: biochemical; assay type: tissue-based, Neutrophil; details: neutrophil;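 note: inhibition of Cathepsin G enzyme activity, tested on an AMC-conjugated peptide substrate; in other assays of this panel Not Active means under 50% inhibition at 10 µM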
T1 sequence (P08311 whole entry): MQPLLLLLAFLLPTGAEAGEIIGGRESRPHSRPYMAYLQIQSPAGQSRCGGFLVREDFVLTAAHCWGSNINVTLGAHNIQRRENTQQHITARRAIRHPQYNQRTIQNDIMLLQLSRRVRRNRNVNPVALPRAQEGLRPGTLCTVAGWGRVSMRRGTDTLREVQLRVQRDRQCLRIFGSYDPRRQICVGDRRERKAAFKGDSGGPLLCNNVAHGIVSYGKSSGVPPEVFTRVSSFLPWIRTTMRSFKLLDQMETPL

Cytochrome P450 1A2 = target: T2, Cytochrome P450 1A2 (Homo sapiens, UniProt P05177); details: bti-tn-5b1-4; note: in other assays of this panel Not Active means under 50% inhibition at 10 µM
T2 sequence (P05177 whole entry): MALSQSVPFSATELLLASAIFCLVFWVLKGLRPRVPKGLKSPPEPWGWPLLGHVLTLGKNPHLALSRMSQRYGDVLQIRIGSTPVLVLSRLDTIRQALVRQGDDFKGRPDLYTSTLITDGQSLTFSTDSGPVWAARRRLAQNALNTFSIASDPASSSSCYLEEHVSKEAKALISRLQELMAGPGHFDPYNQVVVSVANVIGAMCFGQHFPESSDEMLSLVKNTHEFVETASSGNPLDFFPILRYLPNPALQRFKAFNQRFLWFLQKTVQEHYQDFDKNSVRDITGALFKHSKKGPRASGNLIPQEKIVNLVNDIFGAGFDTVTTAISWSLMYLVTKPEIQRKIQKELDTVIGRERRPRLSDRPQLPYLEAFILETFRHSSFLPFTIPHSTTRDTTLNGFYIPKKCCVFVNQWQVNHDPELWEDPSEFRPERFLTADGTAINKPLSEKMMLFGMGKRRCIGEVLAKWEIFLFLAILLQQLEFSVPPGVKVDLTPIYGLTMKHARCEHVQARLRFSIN

[1] = target: Beta-1 adrenergic receptor (Homo sapiens, UniProt P08588); test: DRUGMATRIX: Adrenergic beta1 radioligand binding (ligand: [125I] Cyanopindolol); assay type: cell membranes, CHO-K1, Membrane; details: cho-k1; Not Active = under 50% inhibition at 10 µM
[2] = target: T3, Neuropeptide Y receptor type 1 (Homo sapiens, UniProt P25929); assay type: cell membranes, Membrane; details: sk-n-mc; note: in other assays of this panel Not Active means under 50% inhibition at 10 µM
T3 sequence (P25929 whole entry): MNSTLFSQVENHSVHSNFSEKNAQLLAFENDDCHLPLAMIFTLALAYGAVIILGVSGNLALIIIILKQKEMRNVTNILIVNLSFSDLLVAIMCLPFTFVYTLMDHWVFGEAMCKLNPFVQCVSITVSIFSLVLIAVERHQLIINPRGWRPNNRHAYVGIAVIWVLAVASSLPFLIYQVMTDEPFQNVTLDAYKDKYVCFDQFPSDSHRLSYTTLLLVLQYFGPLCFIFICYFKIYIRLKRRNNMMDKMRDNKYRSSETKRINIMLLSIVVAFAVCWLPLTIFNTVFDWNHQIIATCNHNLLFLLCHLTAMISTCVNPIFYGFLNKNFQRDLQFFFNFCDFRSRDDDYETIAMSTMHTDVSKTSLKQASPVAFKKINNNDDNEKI

Insulin receptor = Insulin receptor (Rattus norvegicus, UniProt P15127); assay type: cell membranes, Wistar, Liver, Membrane; note: in other assays of this panel Not Active means under 50% inhibition at 10 µM
[3] = target: Tyrosine-protein kinase Fyn (Homo sapiens, UniProt P06241); test: biochemical; assay type: cell-based, Insect cells; details: insect cells
[4] = target: Matrix metalloproteinase-9 (Homo sapiens, UniProt P14780); assay type: cell-based
[5] = target: Receptor tyrosine-protein kinase erbB-2 (Homo sapiens, UniProt P04626); assay type: cell-based; details: insect cells
[6] = target: T4, 5-hydroxytryptamine receptor 1A (Rattus norvegicus, UniProt P19327); assay type: cell membranes, CHO-K1, Membrane; details: cho-k1; note: in other assays of this panel Not Active means under 50% inhibition at 10 µM
T4 sequence (P19327 whole entry): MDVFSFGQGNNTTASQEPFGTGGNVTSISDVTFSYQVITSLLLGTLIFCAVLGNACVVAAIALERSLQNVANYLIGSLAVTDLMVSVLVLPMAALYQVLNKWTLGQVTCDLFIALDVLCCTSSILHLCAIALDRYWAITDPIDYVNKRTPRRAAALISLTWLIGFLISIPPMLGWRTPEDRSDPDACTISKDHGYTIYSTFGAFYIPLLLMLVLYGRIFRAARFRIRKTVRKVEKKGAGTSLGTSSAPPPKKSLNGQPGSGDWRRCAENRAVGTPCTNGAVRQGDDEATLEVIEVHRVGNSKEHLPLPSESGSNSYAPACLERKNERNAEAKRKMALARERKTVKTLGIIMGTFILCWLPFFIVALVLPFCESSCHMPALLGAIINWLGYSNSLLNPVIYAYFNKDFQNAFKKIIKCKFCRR

Beta-1 adrenergic receptor, sequence (P08588 whole entry): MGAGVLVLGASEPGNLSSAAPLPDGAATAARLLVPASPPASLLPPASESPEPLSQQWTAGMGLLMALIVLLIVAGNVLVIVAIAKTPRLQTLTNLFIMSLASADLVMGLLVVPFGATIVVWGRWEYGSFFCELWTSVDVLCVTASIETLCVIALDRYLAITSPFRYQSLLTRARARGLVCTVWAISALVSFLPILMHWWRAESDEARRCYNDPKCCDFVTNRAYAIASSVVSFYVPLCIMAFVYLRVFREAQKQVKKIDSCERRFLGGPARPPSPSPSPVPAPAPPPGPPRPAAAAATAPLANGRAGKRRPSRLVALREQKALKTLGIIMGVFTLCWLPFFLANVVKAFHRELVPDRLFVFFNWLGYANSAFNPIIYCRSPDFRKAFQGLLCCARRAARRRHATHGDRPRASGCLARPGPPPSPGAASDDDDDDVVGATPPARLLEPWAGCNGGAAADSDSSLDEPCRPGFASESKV
Receptor tyrosine-protein kinase erbB-2, sequence (P04626 whole entry): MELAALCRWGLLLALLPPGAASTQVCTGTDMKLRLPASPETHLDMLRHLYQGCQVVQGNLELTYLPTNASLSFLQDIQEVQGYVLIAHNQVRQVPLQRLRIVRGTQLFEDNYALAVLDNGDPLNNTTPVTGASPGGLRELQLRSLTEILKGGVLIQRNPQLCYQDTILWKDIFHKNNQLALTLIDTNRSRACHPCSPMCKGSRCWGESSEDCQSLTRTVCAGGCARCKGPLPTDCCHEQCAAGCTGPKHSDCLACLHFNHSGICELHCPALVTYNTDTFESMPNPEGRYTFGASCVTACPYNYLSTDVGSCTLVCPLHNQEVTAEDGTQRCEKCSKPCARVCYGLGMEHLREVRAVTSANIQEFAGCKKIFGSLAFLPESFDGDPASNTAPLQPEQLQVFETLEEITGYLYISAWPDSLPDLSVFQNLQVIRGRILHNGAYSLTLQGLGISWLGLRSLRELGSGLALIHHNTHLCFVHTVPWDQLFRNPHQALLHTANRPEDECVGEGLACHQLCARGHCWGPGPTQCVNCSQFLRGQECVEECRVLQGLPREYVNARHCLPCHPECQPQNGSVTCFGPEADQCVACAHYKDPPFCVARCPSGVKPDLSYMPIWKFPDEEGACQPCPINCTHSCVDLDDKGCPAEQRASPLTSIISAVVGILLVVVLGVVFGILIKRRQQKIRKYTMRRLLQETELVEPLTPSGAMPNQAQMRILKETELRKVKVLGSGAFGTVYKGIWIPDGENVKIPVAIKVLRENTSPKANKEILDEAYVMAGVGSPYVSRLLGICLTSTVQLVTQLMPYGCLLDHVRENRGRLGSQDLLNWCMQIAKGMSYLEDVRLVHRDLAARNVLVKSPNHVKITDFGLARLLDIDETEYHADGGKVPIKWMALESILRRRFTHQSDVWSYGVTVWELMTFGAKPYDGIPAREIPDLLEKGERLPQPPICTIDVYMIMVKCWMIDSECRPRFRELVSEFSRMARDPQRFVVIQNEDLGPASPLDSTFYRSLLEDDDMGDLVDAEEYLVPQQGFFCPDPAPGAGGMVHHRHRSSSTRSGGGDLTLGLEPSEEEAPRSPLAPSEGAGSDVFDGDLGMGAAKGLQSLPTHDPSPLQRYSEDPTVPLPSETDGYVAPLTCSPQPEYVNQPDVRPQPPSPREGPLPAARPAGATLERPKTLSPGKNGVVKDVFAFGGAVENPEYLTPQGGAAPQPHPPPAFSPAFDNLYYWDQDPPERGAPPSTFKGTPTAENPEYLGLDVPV
Tyrosine-protein kinase Fyn, sequence (P06241 whole entry): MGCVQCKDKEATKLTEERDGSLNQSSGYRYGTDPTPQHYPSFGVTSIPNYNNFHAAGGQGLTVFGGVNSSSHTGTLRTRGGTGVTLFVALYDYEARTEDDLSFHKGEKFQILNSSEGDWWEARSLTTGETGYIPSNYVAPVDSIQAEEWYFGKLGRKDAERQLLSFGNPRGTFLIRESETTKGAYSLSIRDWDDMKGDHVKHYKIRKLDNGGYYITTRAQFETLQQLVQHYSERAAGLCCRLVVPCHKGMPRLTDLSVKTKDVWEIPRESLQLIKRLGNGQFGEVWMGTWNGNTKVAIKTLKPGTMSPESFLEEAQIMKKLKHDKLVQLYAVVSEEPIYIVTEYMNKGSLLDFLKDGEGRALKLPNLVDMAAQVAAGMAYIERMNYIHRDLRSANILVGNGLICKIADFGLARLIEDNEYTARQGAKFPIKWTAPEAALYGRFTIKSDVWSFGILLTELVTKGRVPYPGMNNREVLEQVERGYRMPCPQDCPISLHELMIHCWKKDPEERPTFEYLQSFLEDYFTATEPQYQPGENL
Matrix metalloproteinase-9, sequence (P14780 whole entry): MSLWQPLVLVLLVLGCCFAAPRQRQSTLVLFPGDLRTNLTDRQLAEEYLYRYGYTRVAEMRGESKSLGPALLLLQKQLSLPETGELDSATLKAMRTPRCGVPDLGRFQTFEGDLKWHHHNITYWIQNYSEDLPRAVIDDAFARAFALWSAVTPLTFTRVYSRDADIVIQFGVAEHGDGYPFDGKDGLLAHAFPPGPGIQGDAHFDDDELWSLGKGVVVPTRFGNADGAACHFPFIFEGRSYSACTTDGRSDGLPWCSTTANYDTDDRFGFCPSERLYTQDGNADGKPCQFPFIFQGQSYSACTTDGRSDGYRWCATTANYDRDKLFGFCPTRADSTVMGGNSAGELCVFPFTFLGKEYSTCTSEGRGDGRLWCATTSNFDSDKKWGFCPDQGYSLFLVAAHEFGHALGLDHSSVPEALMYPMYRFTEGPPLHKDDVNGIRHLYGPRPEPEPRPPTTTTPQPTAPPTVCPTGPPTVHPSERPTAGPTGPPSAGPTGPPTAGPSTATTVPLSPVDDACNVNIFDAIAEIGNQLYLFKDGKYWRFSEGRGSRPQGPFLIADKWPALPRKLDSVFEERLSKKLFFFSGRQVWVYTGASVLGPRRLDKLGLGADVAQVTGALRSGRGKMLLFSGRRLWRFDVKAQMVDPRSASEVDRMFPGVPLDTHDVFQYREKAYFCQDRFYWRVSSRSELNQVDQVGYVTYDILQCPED
Insulin receptor, sequence (P15127 27-759 limits assumed): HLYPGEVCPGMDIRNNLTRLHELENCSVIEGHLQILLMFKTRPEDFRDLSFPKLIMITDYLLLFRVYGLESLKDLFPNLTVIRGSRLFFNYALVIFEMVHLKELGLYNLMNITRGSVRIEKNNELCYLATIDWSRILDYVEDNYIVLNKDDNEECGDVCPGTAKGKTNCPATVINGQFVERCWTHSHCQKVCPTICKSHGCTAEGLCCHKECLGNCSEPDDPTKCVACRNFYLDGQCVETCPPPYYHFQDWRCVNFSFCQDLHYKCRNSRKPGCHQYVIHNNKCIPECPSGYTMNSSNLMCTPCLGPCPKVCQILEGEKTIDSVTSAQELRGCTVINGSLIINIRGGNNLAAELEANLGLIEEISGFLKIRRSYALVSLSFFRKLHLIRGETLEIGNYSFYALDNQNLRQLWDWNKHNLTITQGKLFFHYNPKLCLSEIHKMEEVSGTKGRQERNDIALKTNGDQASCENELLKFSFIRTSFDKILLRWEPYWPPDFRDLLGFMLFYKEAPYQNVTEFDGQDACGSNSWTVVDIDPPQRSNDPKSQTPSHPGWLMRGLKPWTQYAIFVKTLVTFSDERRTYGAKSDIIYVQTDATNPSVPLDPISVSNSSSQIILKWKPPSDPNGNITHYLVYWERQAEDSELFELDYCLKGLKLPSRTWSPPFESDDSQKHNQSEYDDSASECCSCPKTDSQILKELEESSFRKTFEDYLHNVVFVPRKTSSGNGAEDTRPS
Insulin receptor, sequence (P15127 764-1383 limits assumed): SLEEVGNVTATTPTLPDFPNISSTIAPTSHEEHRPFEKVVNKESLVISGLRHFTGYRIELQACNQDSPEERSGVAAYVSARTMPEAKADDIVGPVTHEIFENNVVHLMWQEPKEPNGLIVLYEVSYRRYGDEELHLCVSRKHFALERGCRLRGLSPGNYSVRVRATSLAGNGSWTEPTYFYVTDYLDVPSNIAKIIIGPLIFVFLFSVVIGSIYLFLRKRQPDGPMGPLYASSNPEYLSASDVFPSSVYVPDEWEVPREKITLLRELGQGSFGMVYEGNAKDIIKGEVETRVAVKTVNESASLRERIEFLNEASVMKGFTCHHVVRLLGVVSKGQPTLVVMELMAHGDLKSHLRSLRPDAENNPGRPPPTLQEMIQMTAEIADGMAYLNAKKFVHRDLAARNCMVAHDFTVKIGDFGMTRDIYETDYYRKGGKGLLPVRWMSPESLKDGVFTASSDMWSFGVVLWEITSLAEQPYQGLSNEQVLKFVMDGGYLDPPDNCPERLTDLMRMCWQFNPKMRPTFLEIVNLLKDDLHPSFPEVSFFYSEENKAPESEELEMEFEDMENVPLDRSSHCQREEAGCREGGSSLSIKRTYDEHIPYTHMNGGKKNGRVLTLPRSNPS

ClC1=C(Cl)[C@]2(Cl)[C@@H]3[C@@H]4C[C@@H]([C@H]5O[C@@H]45)[C@@H]3[C@@]1(Cl)C2(Cl)Cl [DIELDRIN]
Not Active: IC50 (Cathepsin G) | IC50 (Cytochrome P450 1A2) | Ki (Cytochrome P450 1A2) | IC50 [1] | IC50 [2] | IC50 (Insulin receptor) | IC50 [3] | IC50 [4] | IC50 [5] | IC50 [6]

CCN1CCN(c2cc3c(cc2F)c(=O)c(C(=O)O)cn3C2CC2)CC1 [ENROFLOXACIN]
Not Active: IC50 (Cathepsin G) | IC50 (Cytochrome P450 1A2) | Ki (Cytochrome P450 1A2) | IC50 [1] | IC50 [2] | IC50 (Insulin receptor) | IC50 [3] | IC50 [4] | IC50 [5] | IC50 [6]

C[C@H]1C[C@H]2[C@@H]3CCC4=CC(=O)C=C[C@]4(C)[C@@]3(F)[C@@H](O)C[C@]2(C)[C@@]1(O)C(=O)CO [BETAMETHASONE]
Not Active: IC50 (Cathepsin G) | IC50 (Cytochrome P450 1A2) | Ki (Cytochrome P450 1A2) | IC50 [1] | IC50 [2] | IC50 (Insulin receptor) | IC50 [3] | IC50 [4] | IC50 [5] | IC50 [6]

OC[C@H]1O[C@@H]2O[C@H]3[C@H](O)[C@@H](O)[C@@H](O[C@H]4[C@H](O)[C@@H](O)[C@@H](O[C@H]5[C@H](O)[C@@H](O)[C@@H](O[C@H]6[C@H](O)[C@@H](O)[C@@H](O[C@H]7[C@H](O)[C@@H](O)[C@@H](O[C@H]8[C@H](O)[C@@H](O)[C@@H](O[C@H]1[C@H](O)[C@H]2O)O[C@@H]8CO)O[C@@H]7CO)O[C@@H]6CO)O[C@@H]5CO)O[C@@H]4CO)O[C@@H]3CO [BETADEX]
Not Active: IC50 (Cathepsin G) | IC50 (Cytochrome P450 1A2) | Ki (Cytochrome P450 1A2) | IC50 [1] | IC50 [2] | IC50 (Insulin receptor) | IC50 [3] | IC50 [4] | IC50 [5] | IC50 [6]

C=CCN1CC[C@]23c4c5ccc(O)c4O[C@H]2/C(=N/N=C2\CC[C@@]4(O)[C@H]6Cc7ccc(O)c8c7[C@@]4(CCN6CC=C)[C@H]2O8)CC[C@@]3(O)[C@H]1C5 [NALOXONAZINE]
Not Active: IC50 (Cathepsin G) | IC50 (Cytochrome P450 1A2) | Ki (Cytochrome P450 1A2) | IC50 [1] | IC50 [2] | IC50 (Insulin receptor) | IC50 [3] | IC50 [4] | IC50 [5] | IC50 [6]

CCCCCCNC(=O)n1cc(F)c(=O)[nH]c1=O [CARMOFUR]
Not Active: IC50 (Cathepsin G) | IC50 (Cytochrome P450 1A2) | Ki (Cytochrome P450 1A2) | IC50 [1] | IC50 [2] | IC50 (Insulin receptor) | IC50 [3] | IC50 [4] | IC50 [5] | IC50 [6]

OC[C@H]1O[C@@H]2O[C@H]3[C@H](O)[C@@H](O)[C@@H](O[C@H]4[C@H](O)[C@@H](O)[C@@H](O[C@H]5[C@H](O)[C@@H](O)[C@@H](O[C@H]6[C@H](O)[C@@H](O)[C@@H](O[C@H]7[C@H](O)[C@@H](O)[C@@H](O[C@H]1[C@H](O)[C@H]2O)O[C@@H]7CO)O[C@@H]6CO)O[C@@H]5CO)O[C@@H]4CO)O[C@@H]3CO [ALFADEX]
Not Active: IC50 (Cathepsin G) | IC50 (Cytochrome P450 1A2) | Ki (Cytochrome P450 1A2) | IC50 [1] | IC50 [2] | IC50 (Insulin receptor) | IC50 [3] | IC50 [4] | IC50 [5] | IC50 [6]
